# From ChEMBL document CHEMBL3994622, “Design and synthesis of new RAF kinase-inhibiting antiproliferative quinoline derivatives. Part 2: Diarylurea derivatives” (Eur J Med Chem, 2017)
# What was measured:
# [1] = tested on: SF-539; assay: Growth inhibition of human SF539 cells assessed as cell growth at 50 uM incubated for 48 hrs by sulforhodamine B assay relative to control; format: functional; settings: SF-539, 48 h, read-out: Activity
# [2] = tested on: IGROV-1; assay: Growth inhibition of human IGROV1 cells assessed as cell growth at 5 uM incubated for 48 hrs by sulforhodamine B assay relative to control; format: functional; settings: IGROV-1, 48 h, read-out: Activity
# [3] = tested on: 786-0; assay: Growth inhibition of human 786-0 cells assessed as cell growth at 50 uM incubated for 48 hrs by sulforhodamine B assay relative to control; format: functional; settings: 786-0, 48 h, read-out: Activity
# [4] = tested on: SF-268; assay: Growth inhibition of human SF268 cells assessed as cell growth at 0.05 uM incubated for 48 hrs by sulforhodamine B assay relative to control; format: functional; settings: SF-268, 48 h, read-out: Activity
# [5] = tested on: HT-29; assay: Growth inhibition of human HT-29 cells assessed as cell growth at 0.005 uM incubated for 48 hrs by sulforhodamine B assay relative to control; format: functional; settings: HT-29, 48 h, read-out: Activity
# [6] = tested on: IGROV-1; assay: Growth inhibition of human IGROV1 cells assessed as cell growth at 0.05 uM incubated for 48 hrs by sulforhodamine B assay relative to control; format: functional; settings: IGROV-1, 48 h, read-out: Activity
# [7] = tested on: BT-549; assay: Growth inhibition of human BT549 cells assessed as cell growth at 0.5 uM incubated for 48 hrs by sulforhodamine B assay relative to control; format: functional; settings: BT-549, 48 h, read-out: Activity
# [8] = tested on: ACHN; assay: Growth inhibition of human ACHN cells assessed as cell growth at 0.05 uM incubated for 48 hrs by sulforhodamine B assay relative to control; format: functional; settings: read-out: Activity
# [9] = tested on: HCC 2998; assay: Growth inhibition of human HCC2998 cells assessed as cell growth at 0.05 uM incubated for 48 hrs by sulforhodamine B assay relative to control; format: functional; settings: HCC 2998, 48 h, read-out: Activity
# [10] = tested on: SF-539; assay: Growth inhibition of human SF539 cells assessed as cell growth at 5 uM incubated for 48 hrs by sulforhodamine B assay relative to control; format: functional; settings: SF-539, 48 h, read-out: Activity
# [11] = tested on: NCI-H460; assay: Growth inhibition of human NCI-H460 cells assessed as cell growth at 5 uM incubated for 48 hrs by sulforhodamine B assay relative to control; format: functional; settings: NCI-H460, 48 h, read-out: Activity
# [12] = tested on: HOP-62; assay: Growth inhibition of human HOP62 cells assessed as cell growth at 5 uM incubated for 48 hrs by sulforhodamine B assay relative to control; format: functional; settings: HOP-62, 48 h, read-out: Activity
# [13] = tested on: MOLT-4; assay: Growth inhibition of human MOLT4 cells assessed as cell growth at 0.005 uM incubated for 48 hrs by sulforhodamine B assay relative to control; format: functional; settings: MOLT-4, 48 h, read-out: Activity
# [14] = tested on: UACC-62; assay: Growth inhibition of human UACC62 cells assessed as cell growth at 0.5 uM incubated for 48 hrs by sulforhodamine B assay relative to control; format: functional; settings: UACC-62, 48 h, read-out: Activity
# [15] = tested on: HOP-92; assay: Growth inhibition of human HOP92 cells assessed as cell growth at 0.05 uM incubated for 48 hrs by sulforhodamine B assay relative to control; format: functional; settings: HOP-92, 48 h, read-out: Activity
# [16] = tested on: SF-268; assay: Growth inhibition of human SF268 cells assessed as cell growth at 0.005 uM incubated for 48 hrs by sulforhodamine B assay relative to control; format: functional; settings: SF-268, 48 h, read-out: Activity
# [17] = tested on: SR; assay: Growth inhibition of human SR cells assessed as cell growth at 0.005 uM incubated for 48 hrs by sulforhodamine B assay relative to control; format: functional; settings: read-out: Activity
# [18] = tested on: HCT-116; assay: Growth inhibition of human HCT116 cells assessed as cell growth at 50 uM incubated for 48 hrs by sulforhodamine B assay relative to control; format: functional; settings: HCT-116, 48 h, read-out: Activity
# [19] = tested on: T47D; assay: Growth inhibition of human T47D cells assessed as cell growth at 0.5 uM incubated for 48 hrs by sulforhodamine B assay relative to control; format: functional; settings: read-out: Activity
# [20] = tested on: EKVX; assay: Growth inhibition of human EKVX cells assessed as cell growth at 5 uM incubated for 48 hrs by sulforhodamine B assay relative to control; format: functional; settings: read-out: Activity
# [21] = tested on: SNB-19; assay: Growth inhibition of human SNB19 cells assessed as cell growth at 0.05 uM incubated for 48 hrs by sulforhodamine B assay relative to control; format: functional; settings: SNB-19, 48 h, read-out: Activity
# [22] = tested on: EKVX; assay: Growth inhibition of human EKVX cells assessed as cell growth at 0.5 uM incubated for 48 hrs by sulforhodamine B assay relative to control; format: functional; settings: read-out: Activity
# [23] = tested on: CAKI-1; assay: Growth inhibition of human Caki1 cells assessed as cell growth at 5 uM incubated for 48 hrs by sulforhodamine B assay relative to control; format: functional; settings: CAKI-1, 48 h, read-out: Activity
# [24] = tested on: HL-60(TB); assay: Growth inhibition of human HL-60(TB) cells assessed as cell growth at 50 uM incubated for 48 hrs by sulforhodamine B assay relative to control; format: functional; settings: HL-60, 48 h, read-out: Activity
# [25] = tested on: MCF7; assay: Growth inhibition of human MCF7 cells assessed as cell growth at 50 uM incubated for 48 hrs by sulforhodamine B assay relative to control; format: functional; settings: MCF7, 48 h, read-out: Activity
# [26] = tested on: SK-OV-3; assay: Growth inhibition of human SKOV3 cells assessed as cell growth at 0.005 uM incubated for 48 hrs by sulforhodamine B assay relative to control; format: functional; settings: SK-OV-3, 48 h, read-out: Activity
# [27] = tested on: MOLT-4; assay: Growth inhibition of human MOLT4 cells assessed as cell growth at 0.05 uM incubated for 48 hrs by sulforhodamine B assay relative to control; format: functional; settings: MOLT-4, 48 h, read-out: Activity
# [28] = tested on: MDA-MB-231; assay: Growth inhibition of human MDA-MB-231 cells assessed as cell growth at 5 uM incubated for 48 hrs by sulforhodamine B assay relative to control; format: functional; settings: MDA-MB-231, 48 h, read-out: Activity
# [29] = tested on: LOX IMVI; assay: Growth inhibition of human LOXIMVI cells assessed as cell growth at 0.5 uM incubated for 48 hrs by sulforhodamine B assay relative to control; format: functional; settings: read-out: Activity
# [30] = tested on: UACC-257; assay: Growth inhibition of human UACC257 cells assessed as cell growth at 0.005 uM incubated for 48 hrs by sulforhodamine B assay relative to control; format: functional; settings: UACC-257, 48 h, read-out: Activity
# [31] = tested on: UO-31; assay: Growth inhibition of human UO31 cells assessed as cell growth at 0.005 uM incubated for 48 hrs by sulforhodamine B assay relative to control; format: functional; settings: UO-31, 48 h, read-out: Activity
# [32] = biological target: Receptor tyrosine-protein kinase erbB-2 (Homo sapiens) (UniProt P04626); assay: Inhibition of human HER2 at 10 uM using poly[Glu:Tyr] (4:1) as substrate in presence of [33P]ATP by Hotspot assay relative to control
# Sequence of Receptor tyrosine-protein kinase erbB-2 (Homo sapiens) (P04626 whole entry): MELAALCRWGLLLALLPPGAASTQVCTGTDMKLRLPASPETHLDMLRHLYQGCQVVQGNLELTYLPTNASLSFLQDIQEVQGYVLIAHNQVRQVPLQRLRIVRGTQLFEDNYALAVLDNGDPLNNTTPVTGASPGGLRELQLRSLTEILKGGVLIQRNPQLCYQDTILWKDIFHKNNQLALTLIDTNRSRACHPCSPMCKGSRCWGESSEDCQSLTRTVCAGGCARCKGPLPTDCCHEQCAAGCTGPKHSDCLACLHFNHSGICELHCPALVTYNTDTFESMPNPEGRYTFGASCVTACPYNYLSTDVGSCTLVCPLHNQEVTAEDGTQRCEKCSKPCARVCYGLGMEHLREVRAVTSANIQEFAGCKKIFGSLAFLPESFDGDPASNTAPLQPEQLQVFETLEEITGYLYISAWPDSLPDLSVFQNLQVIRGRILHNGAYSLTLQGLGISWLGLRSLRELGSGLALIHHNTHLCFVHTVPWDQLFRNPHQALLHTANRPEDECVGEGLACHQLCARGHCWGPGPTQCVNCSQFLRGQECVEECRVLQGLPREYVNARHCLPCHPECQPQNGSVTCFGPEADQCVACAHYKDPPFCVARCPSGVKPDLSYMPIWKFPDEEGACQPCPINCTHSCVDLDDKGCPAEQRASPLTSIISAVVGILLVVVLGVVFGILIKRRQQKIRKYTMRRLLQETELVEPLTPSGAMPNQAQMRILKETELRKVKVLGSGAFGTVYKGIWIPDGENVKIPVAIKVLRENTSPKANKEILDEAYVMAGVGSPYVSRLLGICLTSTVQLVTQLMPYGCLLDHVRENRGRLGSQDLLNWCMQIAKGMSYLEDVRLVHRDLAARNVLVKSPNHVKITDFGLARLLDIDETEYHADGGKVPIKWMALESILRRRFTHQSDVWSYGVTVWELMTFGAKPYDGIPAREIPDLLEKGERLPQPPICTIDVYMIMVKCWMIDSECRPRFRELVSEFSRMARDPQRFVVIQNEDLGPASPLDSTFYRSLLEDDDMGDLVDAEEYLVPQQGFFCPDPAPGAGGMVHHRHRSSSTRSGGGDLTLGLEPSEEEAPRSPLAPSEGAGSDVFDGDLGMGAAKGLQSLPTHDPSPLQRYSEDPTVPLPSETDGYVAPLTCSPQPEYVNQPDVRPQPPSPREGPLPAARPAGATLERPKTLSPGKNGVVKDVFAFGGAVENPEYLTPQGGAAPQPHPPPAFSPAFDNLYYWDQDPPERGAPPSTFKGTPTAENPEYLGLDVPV
# [33] = tested on: T47D; assay: Growth inhibition of human T47D cells assessed as cell growth at 10 uM incubated for 48 hrs by sulforhodamine B assay relative to control; format: functional; settings: read-out: Activity
# [34] = tested on: MDA-MB-468; assay: Growth inhibition of human MDA-MB-468 cells assessed as cell growth at 3 uM incubated for 48 hrs by sulforhodamine B assay relative to control; format: functional; settings: MDA-MB-468, 48 h, read-out: Activity
smiles,measurement,setting,value
COc1cc2cc(Oc3ccc(NC(=O)Nc4cccc(C(F)(F)F)c4)cc3)c(C)nc2cc1OC,growth at 50 µM,[1],-82%
same,growth at 5 µM,[2],31%
same,growth at 50 µM,[3],-33%
same,growth at 0.05 µM,[4],89%
same,growth at 0.005 µM,[5],100%
same,growth at 0.05 µM,[6],108%
same,growth at 0.5 µM,[7],86%
same,growth at 0.05 µM,[8],99%
same,growth at 0.05 µM,[9],105%
same,growth at 5 µM,[10],26%
same,growth at 5 µM,[11],5%
same,growth at 5 µM,[12],25%
same,growth at 0.005 µM,[13],97%
same,growth at 0.5 µM,[14],86%
same,growth at 0.05 µM,[15],96%
same,growth at 0.005 µM,[16],90%
same,growth at 0.005 µM,[17],93%
same,growth at 50 µM,[18],-86%
same,growth at 0.5 µM,[19],94%
same,growth at 5 µM,[20],6%
same,growth at 0.05 µM,[21],91%
same,growth at 0.5 µM,[22],89%
same,growth at 5 µM,[23],-7%
same,growth at 50 µM,[24],-43%
same,growth at 50 µM,[25],-89%
same,growth at 0.005 µM,[26],98%
same,growth at 0.05 µM,[27],98%
same,growth at 5 µM,[28],-7%
same,growth at 0.5 µM,[29],97%
same,growth at 0.005 µM,[30],95%
same,growth at 0.005 µM,[31],90%
COc1cc2cc(Oc3ccc(NC(=O)Nc4ccc(Cl)c(C(F)(F)F)c4)cc3)c(C)nc2cc1OC,inhibition,[32],-7.21%
COc1cc2cc(Oc3ccc(NC(=O)Nc4cc(C(F)(F)F)cc(C(F)(F)F)c4)cc3)c(C)nc2cc1OC,growth at 10 µM,[33],-21%
Cc1nc2cc(O)c(O)cc2cc1Oc1ccc(NC(=O)Nc2ccc(Cl)c(Cl)c2)cc1,growth at 3 µM,[34],92%
